The data set has as its target Nav1.5 ion channel (Homo sapiens (Human), UniProt Q14524). The experiment in a line: Manual patch clamp inhibition of Nav1.5 current in HEK293 cell. It is filed as cell-based. The conditions noted are these: whole-cell patch clamp, read-out: IC50 on inhibiting the Nav1.5 channel activity. How it is done: The purpose of the experiment is to investigate the effect of the compounds on Nav1.5 ion channel in an […] experiment. Nav1.5 ion channel is stably expressed on HEK293 cell. After the Nav1.5 current becomes stable, the Nav1.5 currents before and after the administration of the compound are compared so as to obtain the effect of the compound on the Nav1.5 ion channel.
Extracellular fluid: NaCl, 137 mM; KCl, 4 mM; CaCl2), 1.8 mM; MgCl2, 1 mM; HEPES, 10; glucose, 10 mM; pH 7.4 (NaOH titration).
Intracellular fluid: aspartic acid, 140 mM; MgCl2, 2 mM; EGTA, 11 mM; HEPES, 10 mM; pH 7.2 (CsOH titration).
The test compound was dissolved in dimethyl sulfoxide (DMSO) at a stock concentration of 9 mM. The stock solution of the test compound was dissolved in the extracellular fluid on the day of the test and formulated into the required concentration.
1) The compound was formulated into solutions with specified concentrations. The solutions were added to the pipelines respectively in order from high to low concentration, and the pipelines were marked.
2) The cell was transferred to the perfusion tank, and perfused with the extracellular fluid. The intracellular fluid was stored in small batches in a −80° C. refrigerator, and melted on the day of the experiment. The electrode was pulled with PC-10 (Narishige, Japan). Recording was carried out with the whole-cell patch clamp, and the noise was filtered at one-fifth of the sampling frequency.
3) All compounds were perfused with a perfusion system that uses its own gravity. Each concentration was tested in at least two cells. After the current stabilized (or after 5 minutes), the blocking effect of the compound was calculated by comparing the changes in the current before and after the administration of the compound.
The cell was clamped at −80 mV. The cell was depolarized to Vhalf with a square wave lasting 8 milliseconds, hyperpolarized to −120 mV with a square wave lasting 20 milliseconds, and depolarized to −10 mV with a square wave lasting 20 milliseconds to obtain the Nav1.5 current. This procedure was repeated every 15 seconds. The maximum current caused by the −10 mV square wave was measured. After the current became stable, the test compound was perfused. After the response became stable, the blocking intensity was calculated.
The data was stored in the computer system for analysis. Data collection and analysis were carried out by pCLAMP 10 (Molecular Devices, Union City, CA). Stable current means that the absolute average value of the peak current of four consecutive scans exceeds 200 pA and the CV value is less than 10%, or the average value of the peak current of four consecutive scans is between 200 pA and 50 pA and the CV value is less than 30%. The average value of the last four current peaks after the current stabilized was used to calculate the effect of the compound at the concentration.
A general note: Patch clamp records ionic current or voltage across a cell membrane.

The structures appear in SMILES notation. pIC50: −log10 of the molar value. Some results are limits rather than exact numbers.

Sequence of Nav1.5 ion channel (Q14524 whole entry): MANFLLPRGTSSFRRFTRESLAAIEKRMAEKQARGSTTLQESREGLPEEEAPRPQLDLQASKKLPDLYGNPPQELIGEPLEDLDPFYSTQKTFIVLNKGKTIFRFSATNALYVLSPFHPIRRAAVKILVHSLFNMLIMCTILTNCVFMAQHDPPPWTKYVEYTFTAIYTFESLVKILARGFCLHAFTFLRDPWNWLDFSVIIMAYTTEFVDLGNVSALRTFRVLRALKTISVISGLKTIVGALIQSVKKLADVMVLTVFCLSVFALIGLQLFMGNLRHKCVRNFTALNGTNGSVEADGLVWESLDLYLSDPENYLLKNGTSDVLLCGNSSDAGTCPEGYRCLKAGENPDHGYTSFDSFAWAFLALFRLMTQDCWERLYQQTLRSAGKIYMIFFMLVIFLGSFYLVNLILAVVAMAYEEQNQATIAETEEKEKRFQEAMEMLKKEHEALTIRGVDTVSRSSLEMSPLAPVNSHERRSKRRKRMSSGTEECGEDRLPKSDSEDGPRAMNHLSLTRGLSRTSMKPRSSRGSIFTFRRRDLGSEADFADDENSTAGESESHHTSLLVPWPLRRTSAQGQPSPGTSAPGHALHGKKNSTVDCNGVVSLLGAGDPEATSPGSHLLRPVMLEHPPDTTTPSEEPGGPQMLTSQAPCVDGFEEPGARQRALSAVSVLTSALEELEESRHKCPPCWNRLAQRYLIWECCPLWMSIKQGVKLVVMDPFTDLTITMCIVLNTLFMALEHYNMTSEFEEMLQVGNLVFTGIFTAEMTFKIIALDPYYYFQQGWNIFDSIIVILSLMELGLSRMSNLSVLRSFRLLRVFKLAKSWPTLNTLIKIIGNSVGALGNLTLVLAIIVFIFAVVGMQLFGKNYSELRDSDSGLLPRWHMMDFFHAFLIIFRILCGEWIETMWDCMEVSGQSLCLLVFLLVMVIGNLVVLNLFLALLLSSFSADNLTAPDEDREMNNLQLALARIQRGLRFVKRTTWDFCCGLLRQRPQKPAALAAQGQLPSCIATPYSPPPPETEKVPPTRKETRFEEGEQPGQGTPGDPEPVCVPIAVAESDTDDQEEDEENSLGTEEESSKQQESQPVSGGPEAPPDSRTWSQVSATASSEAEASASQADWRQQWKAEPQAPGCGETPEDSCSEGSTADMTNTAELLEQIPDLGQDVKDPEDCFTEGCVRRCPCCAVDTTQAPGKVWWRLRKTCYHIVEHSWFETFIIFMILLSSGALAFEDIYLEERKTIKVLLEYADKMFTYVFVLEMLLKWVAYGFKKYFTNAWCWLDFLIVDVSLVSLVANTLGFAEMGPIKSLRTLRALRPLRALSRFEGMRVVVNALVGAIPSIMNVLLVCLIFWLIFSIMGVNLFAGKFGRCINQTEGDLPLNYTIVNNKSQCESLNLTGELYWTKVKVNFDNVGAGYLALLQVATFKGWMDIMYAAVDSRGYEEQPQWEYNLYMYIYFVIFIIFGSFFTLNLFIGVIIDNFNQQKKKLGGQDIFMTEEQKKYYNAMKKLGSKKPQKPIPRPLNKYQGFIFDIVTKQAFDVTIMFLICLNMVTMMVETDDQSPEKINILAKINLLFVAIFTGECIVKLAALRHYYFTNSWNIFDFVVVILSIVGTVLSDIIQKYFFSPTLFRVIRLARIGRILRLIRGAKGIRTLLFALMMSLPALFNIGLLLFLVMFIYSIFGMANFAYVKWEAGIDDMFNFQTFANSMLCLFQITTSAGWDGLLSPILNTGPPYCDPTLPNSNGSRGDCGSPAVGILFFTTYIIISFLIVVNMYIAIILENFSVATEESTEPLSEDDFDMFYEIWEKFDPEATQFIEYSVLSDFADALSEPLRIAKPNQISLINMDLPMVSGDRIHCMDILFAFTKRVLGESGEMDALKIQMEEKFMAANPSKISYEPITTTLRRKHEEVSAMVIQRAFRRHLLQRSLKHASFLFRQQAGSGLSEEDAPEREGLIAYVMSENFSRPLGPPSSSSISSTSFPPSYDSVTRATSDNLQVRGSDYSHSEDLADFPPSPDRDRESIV

For the compound `O=C(/C=C/CNC1(COc2ccc(/C(=C(/CC(F)(F)F)c3ccccc3)c3ccc4[nH]nc(F)c4c3)cn2)CC1)N1CCOCC1` [Example 1, (E)-1-Morpholino-4-((1-(((5-((Z)-4,4,4-trifluoro-1-(3-fluoro-1H-indazol-5-yl)-2-phenylbut-1-en-1-yl)pyridin-2-yl)oxy)methyl)cyclopropyl)amino)but-2-en-1-one], the negative-log IC50 (pIC50) (in general, −log10 of the IC50, conventionally taken in molar units) is below 5.00.

Consider `CN(C)C(=O)/C=C/CNC1(COc2ccc(/C(=C(/CC(F)(F)F)c3ccccc3)c3ccc4[nH]nc(F)c4c3)cn2)CC1` [Example 39, (E)-N,N-Dimethyl-4-((1-(((5-((Z)-4,4,4-trifluoro-1-(3-fluoro-1H-indazol-5-yl)-2-phenylbut-1-en-1-yl)pyridin-2-yl)oxy)methyl)cyclopropyl)amino)but-2-enamide], for which the pIC50 is 5.09.

Regarding `O=C(/C=C/CNC1(COc2ccc(/C(=C(/CC(F)(F)F)c3ccccc3)c3ccc4[nH]nc(F)c4c3)cn2)CC1)N1CC(O)C1` [Example 40, (E)-1-(3-Hydroxyazetidin-1-yl)-4-((1-(((5-((Z)-4,4,4-trifluoro-1-(3-fluoro-1H-indazol-5-yl)-2-phenylbut-1-en-1-yl)pyridin-2-yl)oxy)methyl)cyclopropyl)amino)but-2-en-1-one], the pIC50 is 4.94.

Consider `O=C(/C=C/CNC1(COc2ccc(/C(=C(/CC(F)(F)F)c3ccccc3)c3ccc4[nH]nc(F)c4c3)cn2)CC1)N1CC[C@H](O)C1` [Example 41, (E)-1-((S)-3-Hydroxypyrrolidin-1-yl)-4-((1-(((5-((Z)-4,4,4-trifluoro-1-(3-fluoro-1H-indazol-5-yl)-2-phenylbut-1-en-1-yl)pyridin-2-yl)oxy)methyl)cyclopropyl)amino)but-2-en-1-one], for which the negative logarithm of the IC50 (pIC50) was 5.28.

The values above are taken from patent US12325696B2, “Indazole derivative, preparation method therefor, and pharmaceutical application thereof” (JIANGSU HENGRUI MEDICINE CO., LTD., priority 2019, dated 2025).
